One series deals with a strand of SEQ ID NO:1. As to the kind of experiment: Specific hybridization of LDLR adaptin domain-encoding polynucleotides under stringent conditions. The following applies: Conditions I and/or II. In kind it is binding, human. The arrangement: key: +: hybridize with a strand of SEQ ID NO:1 under Conditions I and/or II. The source says:
These natural sequence LDLR adaptin polynucleotides provide hybridization probes and replication/amplification primers having a disclosed LDLR adaptin domain encoding cDNA sequence or fragments thereof sufficient to effect specific hybridization thereto. Such primers or probes are at least 12, preferably at least 24, more preferably at least 36 and most preferably at least 96 bases in length.

Series [1] deals with T1, GST-PTB domain fusion protein (Homo sapiens, UniProt Q5SW96).
T1 construct: made in house
T1 sequence (Q5SW96 48-175): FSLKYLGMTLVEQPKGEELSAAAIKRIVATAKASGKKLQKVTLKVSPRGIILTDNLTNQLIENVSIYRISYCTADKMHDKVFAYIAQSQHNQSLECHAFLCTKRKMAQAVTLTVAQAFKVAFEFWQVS
Description: Fluorescence polarization binding of fluorescent LDLR peptide probe to the PTB domain. As for the experimental part: Peptide binding to the GST-PTB domain fusion protein is measured by using fluorescence polarization (also known as fluorescence anisotropy; Li, et al. 1997 Proc. Natl. Acad. Sci. USA 94:7204-7209) is a protocol adapted from Howell et al. 1999 Mol Cell Biol 19, 5179-5188. A16-mer LDLR peptide (acetyl-SINFDNPVYQKTTEDE-amide, residues 820-835 of SEQ ID NO:8) and its phosphorylated analog (phosphate on the tyrosine) are synthesized with an AMS 222 Multiple Peptide Synthesizer using TenetaGel S resin (Rapp Polymere) and purified by high-pressure liquid chromatography. Peptide concentrations are determined by spectrophotometry and confirmed by amino acid analysis. […] Reactions are stopped with 5 μmol of Tris HCl (pH 8.0) and analyzed by thin-layer chromatography (Silica gel 60; methanol-acetic acid-water [4:1:1]). […] Based on fluorescence intensity, the fluorescent peptide (probe) concentration in binding reaction mixtures was estimated to be 20 nM.
Binding measurements are performed in a Beacon 2000 Variable Temperature Fluorescence Polarization System (PanVera Corporation). Essentially, a constant concentration of fluorescent probe peptide is incubated with various concentrations of the GST-PTB domain or GST in 100 μl of 0.5% Triton X-100-20 mM glutathione-200 mM Tris HCl (pH 8.0) at 4° C. and fluorescence polarization is measured. […]

[2] abbreviates: PTB domain encoding polynucleotides.
The mark [3] stands for this setting: CC domain encoding polynucleotides.

On to “SEQ ID NO:1, nucleotides 249-272: LDLR adaptin PTB domain encoding polynucleotide (DNA GAAGCTGCAGAAGGTGACTCTGAA; chemistry not given here)”, for which the Hybridization result with a strand of SEQ ID NO:1 (setting [2]) is “+”.

“SEQ ID NO:1, nucleotides 369-392: LDLR adaptin PTB domain encoding polynucleotide (DNA GATGCACGACAAGGTGTTTGCATA; chemistry not given here)”: in the series on a strand of SEQ ID NO:1 (setting [2]), the Hybridization result is given as “+”.

Take “SEQ ID NO:1, nucleotides 775-789: LDLR adaptin CC domain encoding polynucleotide (DNA TTTTCGAGGCTTGCC; chemistry not given here)”: the Hybridization entry with a strand of SEQ ID NO:1 (setting [3]) is given as “+”.

For “SEQ ID NO:1, nucleotides 511-525: LDLR adaptin PTB domain encoding polynucleotide (DNA TTTTGGCAGGTGTCC; chemistry not given here)”, the Hybridization entry with a strand of SEQ ID NO:1 (setting [2]) is “+”.

With “SEQ ID NO:1, nucleotides 393-416: LDLR adaptin PTB domain encoding polynucleotide (DNA CATCGCCCAGAGCCAGCACAACCA; chemistry not given here)”, the Hybridization entry in the series with a strand of SEQ ID NO:1 (setting [2]) is on record as “+”.

“SEQ ID NO:1, nucleotides 442-465: LDLR adaptin PTB domain encoding polynucleotide (DNA TGCACCAAGCGGAAGATGGCACAG; chemistry not given here)”: in the series on a strand of SEQ ID NO:1 (setting [2]), the Hybridization entry is “+”.

On to “SEQ ID NO:1, nucleotides 321-344: LDLR adaptin PTB domain encoding polynucleotide (DNA CATTGAGAACGTGTCCATATACAG; chemistry not given here)”, for which the Hybridization result in the series with a strand of SEQ ID NO:1 (setting [2]) is “+”.

Consider “SEQ ID NO:1, nucleotides 185-218: LDLR adaptin PTB domain encoding polynucleotide (DNA AGGGTGAGGAGCTGTCGGCCGCCGCCATCAAGAG; chemistry not given here)”, for which, in the series on a strand of SEQ ID NO:1 (setting [2]), the Hybridization result was “+”.

For the substance “SEQ ID NO:1, nucleotides 742-770: LDLR adaptin CC domain encoding polynucleotide (DNA GTCTGGGAGCTGGATGATGGCCTGGATGA; chemistry not given here)”, in the series with a strand of SEQ ID NO:1 (setting [3]), the Hybridization result was “+”.

With “SEQ ID NO:1, nucleotides 263-286: LDLR adaptin PTB domain encoding polynucleotide (DNA TGACTCTGAAGGTGTCGCCACGGG; chemistry not given here)”, in the series on a strand of SEQ ID NO:1 (setting [2]), the Hybridization entry is recorded as “+”.

“SEQ ID NO:1, nucleotides 784-809: LDLR adaptin CC domain encoding polynucleotide (DNA CTTGCCCAGTCTCGGACAAACCCTCA; chemistry not given here)”: the Hybridization result with a strand of SEQ ID NO:1 (setting [3]) is reported as “+”.

With “SEQ ID NO:1, nucleotides 142-164: LDLR adaptin PTB domain encoding polynucleotide (DNA TTCAGCCTCAAGTACCTGGGCAT; chemistry not given here)”, the Hybridization result in the series on a strand of SEQ ID NO:1 (setting [2]) is “+”.

As for “acetyl-SINFDNPVYQKTTEDE-amide (Ac-SINFDNPVYQKTTEDE-NH2; also: fluorescein-C6 label, site not given here) [fluorescent probe peptide]”, the “Binding, percent of maximum” value in series [1] (after 5 min at 4° C.) is 95%. The substance also returned a Hill plot slope in series [1] (linear Hill plot, noncooperative binding) of 1.0.

With “SEQ ID NO:1, nucleotides 297-320: LDLR adaptin PTB domain encoding polynucleotide (DNA GACAGACAACCTCACCAACCAGCT; chemistry not given here)”, the Hybridization entry with a strand of SEQ ID NO:1 (setting [2]) is recorded as “+”.

With “SEQ ID NO:1, nucleotides 417-440: LDLR adaptin PTB domain encoding polynucleotide (DNA GAGCCTCGAGTGCCACGCCTTCCT; chemistry not given here)”, the Hybridization entry with a strand of SEQ ID NO:1 (setting [2]) is “+”.

“SEQ ID NO:1, nucleotides 491-511: LDLR adaptin PTB domain encoding polynucleotide (DNA CCTTCAAAGTCGCCTTTGAGT; chemistry not given here)”: the Hybridization entry in the series with a strand of SEQ ID NO:1 (setting [2]) is on record as “+”.

In the case of “SEQ ID NO:1, nucleotides 799-824: LDLR adaptin CC domain encoding polynucleotide (DNA ACAAACCCTCAGGTCCTGGACACTGG; chemistry not given here)”, in the series on a strand of SEQ ID NO:1 (setting [3]), the Hybridization result is “+”.

For “SEQ ID NO:1, nucleotides 801-828: LDLR adaptin CC domain encoding polynucleotide (DNA AAACCCTCAGGTCCTGGACACTGGCCTG; chemistry not given here)”, in the series on a strand of SEQ ID NO:1 (setting [3]), the Hybridization result is “+”.

Turning to “SEQ ID NO:1, nucleotides 345-368: LDLR adaptin PTB domain encoding polynucleotide (DNA GATCTCCTATTGCACAGCAGACAA; chemistry not given here)”, the Hybridization result in the series on a strand of SEQ ID NO:1 (setting [2]) is reported as “+”.

Values taken from patent US6465196B1, “Drug screen for identifying an agent that modulates low density lipoprotein receptor adaptin-ligand binding” (Board of Regents, The University of Texas System, priority 2001, dated 2002).
